{"source": "patent US20120022163A1", "about": "(priority 2010, published 2012)", "key": {"gamma secretase": {"test_system": "gamma secretase", "details": "cited from earlier work"}, "PrP^sc [1]": {"test_system": "PrP^sc", "format": "in vivo, CD1 female mice", "details": "ip infected mice; cerebellum, hippocampus and parietal cortex"}, "PrP^sc [2]": {"test_system": "PrP^sc", "format": "in vivo, CD1 female mice", "details": "mice sacrificed at clinical end stage; brain"}, "[3]": {"details": "mouse, in vivo, po"}, "[4]": {"test_system": "RML (Rocky Mountains Laboratories) strain of the mouse scrapie agent", "format": "in vivo, CD1 female mice", "details": "Log-Rank test"}}, "note": "Entries after “also recorded” stand apart in the source; their conditions may differ. Read-outs that look alike come from different tables or passages of the source.", "data": [{"compound": "O=C(O)C1(c2ccc(-c3ccc(Cl)c(Cl)c3)c(F)c2)CC1", "note": "[CHF 5074]", "values": [{"measurement": "mode of action on gamma secretase", "setting": "gamma secretase", "result": "gamma secretase modulator"}, {"measurement": "PrP^sc deposits in brain areas (immunohistochemistry), treated compared to controls", "setting": "PrP^sc [1]", "result": "significant lower PrP^sc deposits"}, {"measurement": "content of PrP^sc among the different groups (Western blot)", "setting": "PrP^sc [2]", "result": "without significant differences"}, {"measurement": "safety and tolerability of chronic administration", "setting": "[3]", "result": "safe and well tolerate"}, {"measurement": "survival time, treated versus untreated", "setting": "[4]; ic infected mice", "result": "no difference; also recorded: no effect"}, {"measurement": "survival time, treated versus untreated", "setting": "[4]; ip infected mice", "result": "significantly increases the survival; also recorded: significant difference; also recorded: significantly prolongs survival times"}]}]}
